Assay results as given in ChEMBL document CHEMBL2016455, “5-Benzothiazole substituted pyrimidine derivatives as HCV replication (replicase) inhibitors” (Bioorg Med Chem Lett, 2012).

Tests used:
Hepatitis C virus = assay: Antiviral activity against Hepatitis C virus isolate con1 1b infected in human hepatoma cells replicon cells after 3 days by RT-PCR analysis; format: functional, organism-based, Hepacivirus hominis, genotype 1b Con1
[1] = AUC (0 to 6 hrs) in rat at 10 mg/kg, po; format: ADME, organism-based; set-up: time < 6 hr, dose 10 mg/kg, route oral; details: plasma
Liver = assay: Drug uptake in rat liver per mg tissue at 10 mg/kg, po after 6 hrs; format: ADME, organism-based; set-up: dose 10 mg/kg, route oral; details: in vivo
[2] = Cytotoxicity against human hepatoma cells after 3 days by MTS assay; format: cell-based; details: for CC50 at 72 h: human hepatoma cells
[3] = Cytotoxicity against human hepatoma cells assessed as decrease in RNA level after 3 days by RT-PCR analysis; format: cell-based; details: for CC50 at 72 h: human hepatoma cells
[4] = AUC (0 to 24 hrs) in rat at 10 mg/kg, po; format: ADME, organism-based; set-up: time < 24 hr, dose 10 mg/kg, route oral; details: plasma
[5] = AUC (0 to 24 hrs) in rat at 2 mg/kg, iv and 10 mg/kg, po; format: ADME, organism-based; details: plasma
[6] = Oral bioavailability in rat at 10 mg/kg; format: ADME, organism-based; details: in vivo
[7] = AUC (0 to 24 hrs) in monkey at 1 mg/kg, iv and 3 mg/kg, po; format: ADME, organism-based, Macaca mulatta; details: rhesus monkey, plasma
[8] = Oral bioavailability in monkey at 3 mg/kg; format: ADME, organism-based, Macaca mulatta; details: rhesus monkey, in vivo
[9] = AUC (0 to 24 hrs) in dog at 1 mg/kg, iv and 3 mg/kg, po; format: ADME, organism-based, Canis lupus familiaris; details: plasma
[10] = Oral bioavailability in dog at 3 mg/kg; format: ADME, organism-based, Canis lupus familiaris; details: in vivo
Cytochrome P450 2D6 = Cytochrome P450 2D6 (Homo sapiens, UniProt P10635); assay: Inhibition of CYP2D6; format: ADME
Chain of Cytochrome P450 2D6 (P10635 whole entry): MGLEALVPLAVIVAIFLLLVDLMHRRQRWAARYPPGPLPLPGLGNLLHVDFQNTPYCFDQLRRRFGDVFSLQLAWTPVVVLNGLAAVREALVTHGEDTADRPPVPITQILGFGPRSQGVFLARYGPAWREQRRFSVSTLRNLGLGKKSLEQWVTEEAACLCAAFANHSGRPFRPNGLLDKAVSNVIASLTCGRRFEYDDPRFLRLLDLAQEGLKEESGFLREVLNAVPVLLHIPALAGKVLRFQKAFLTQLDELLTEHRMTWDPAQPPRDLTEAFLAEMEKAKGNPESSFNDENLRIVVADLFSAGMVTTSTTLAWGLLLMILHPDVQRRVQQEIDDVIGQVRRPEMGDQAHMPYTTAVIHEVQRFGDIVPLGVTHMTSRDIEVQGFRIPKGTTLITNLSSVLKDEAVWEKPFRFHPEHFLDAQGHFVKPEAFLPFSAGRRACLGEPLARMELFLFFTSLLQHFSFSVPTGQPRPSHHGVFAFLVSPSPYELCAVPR

Cytochrome P450 3A4 = Cytochrome P450 3A4 (Homo sapiens, UniProt P08684); assay: Inhibition of CYP3A4; format: ADME
Chain of Cytochrome P450 3A4 (P08684 whole entry): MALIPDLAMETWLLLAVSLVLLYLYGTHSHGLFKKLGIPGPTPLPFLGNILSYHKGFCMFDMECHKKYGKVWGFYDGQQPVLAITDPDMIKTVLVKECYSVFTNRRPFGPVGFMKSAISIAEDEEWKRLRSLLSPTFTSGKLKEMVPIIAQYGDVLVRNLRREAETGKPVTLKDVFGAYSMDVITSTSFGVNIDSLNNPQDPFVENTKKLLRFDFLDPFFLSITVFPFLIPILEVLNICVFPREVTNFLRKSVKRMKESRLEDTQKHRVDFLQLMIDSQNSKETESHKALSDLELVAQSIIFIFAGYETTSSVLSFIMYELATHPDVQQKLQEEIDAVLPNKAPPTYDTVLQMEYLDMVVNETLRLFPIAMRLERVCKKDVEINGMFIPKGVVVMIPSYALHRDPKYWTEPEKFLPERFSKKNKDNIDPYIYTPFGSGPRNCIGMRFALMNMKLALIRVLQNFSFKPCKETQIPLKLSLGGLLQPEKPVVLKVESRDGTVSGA

Cytochrome P450 2C9 = Cytochrome P450 2C9 (Homo sapiens, UniProt P11712); assay: Inhibition of CYP2C9; format: ADME
Chain of Cytochrome P450 2C9 (P11712 whole entry): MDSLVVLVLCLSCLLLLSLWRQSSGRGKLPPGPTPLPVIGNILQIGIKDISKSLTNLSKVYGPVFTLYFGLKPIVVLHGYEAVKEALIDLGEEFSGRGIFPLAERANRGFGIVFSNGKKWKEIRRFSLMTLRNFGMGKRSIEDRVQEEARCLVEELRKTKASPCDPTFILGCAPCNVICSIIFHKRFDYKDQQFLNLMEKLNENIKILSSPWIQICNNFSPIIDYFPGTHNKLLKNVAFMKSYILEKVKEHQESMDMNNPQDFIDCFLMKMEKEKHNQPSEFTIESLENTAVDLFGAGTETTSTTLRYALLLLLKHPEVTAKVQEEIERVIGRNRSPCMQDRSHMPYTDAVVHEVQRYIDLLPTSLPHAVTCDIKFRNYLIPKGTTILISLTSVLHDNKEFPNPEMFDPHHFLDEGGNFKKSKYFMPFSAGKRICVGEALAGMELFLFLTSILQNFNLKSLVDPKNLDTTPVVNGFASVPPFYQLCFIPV

[11] = Selectivity ratio of CC50 for human hepatoma cells to EC50 for Hepatitis C virus isolate con1 1b; format: ADME; details: read-out: Ratio CC50/EC50
[12] = Drug uptake in rat liver at 10 mg/kg, po after 4 hrs; format: ADME, organism-based; set-up: dose 10 mg/kg, route oral; details: read-out: Drug uptake
[13] = Hepatitis C virus, genotype 1b Con1, 72 h

SMILES	EC50 (Hepatitis C virus; [13])	AUC(0-t) at 6 h [1]	Drug uptake (Liver)	CC50 at 72 h [2]	CC50 at 72 h [3]	further results
Cc1nc(NC(C)(C)C)nc(N[C@@H]2C[C@H](CO)[C@@H](O)[C@H]2O)c1-c1nc2ccccc2s1	0.09 µM	5 µM·h	1240 ng/g	13 µM	12 µM	–
Nc1ncc(-c2nc3ccccc3s2)c(N[C@@H]2C[C@H](CO)[C@@H](O)[C@H]2O)n1	0.2 µM	0.4 µM·h	250 ng/g	> 25 µM	> 25 µM	–
Cc1nc(NC(C)C)nc(N[C@@H]2C[C@H](CO)[C@@H](O)[C@H]2O)c1-c1nc2ccccc2s1	0.16 µM	19.6 µM·h	3320 ng/g	14 µM	13 µM	–
Cc1nc(NCC2CCC2)nc(N[C@@H]2C[C@H](CO)[C@@H](O)[C@H]2O)c1-c1nc2ccccc2s1	0.25 µM	0.5 µM·h	150 ng/g	> 25 µM	> 25 µM	–
Cc1nc(N(C)C)nc(N[C@@H]2C[C@H](CO)[C@@H](O)[C@H]2O)c1-c1nc2ccccc2s1	0.14 µM	–	1030 ng/g	16 µM	18 µM	AUC(0-t) at 24 h [4]: 11 µM·h
Cc1nc(NCCN2CCOCC2)nc(N[C@@H]2C[C@H](CO)[C@@H](O)[C@H]2O)c1-c1nc2ccccc2s1	0.04 µM	0.2 µM·h	370 ng/g	25 µM	25 µM	–
Cc1nc(NCC(F)(F)F)nc(N[C@@H]2C[C@H](CO)[C@@H](O)[C@H]2O)c1-c1nc2ccccc2s1.Cl	–	–	–	–	–	EC50 (Hepatitis C virus): 0.03 µM; AUC(0-t) [5]: 7 µM·h; bioavailability [6]: 82%; CC50 ([2]; 72 h): 17 µM; AUC(0-t) [7]: 0.3 µM·h; bioavailability [8]: 8%; AUC(0-t) [9]: 7.8 µM·h; bioavailability [10]: 35%; INH (Cytochrome P450 2D6): > 20 µM; INH (Cytochrome P450 3A4): > 20 µM; INH (Cytochrome P450 2C9): > 20 µM; CC50 ([3]; 72 h): 25 µM; selectivity ratio [11]: > 550
Cc1nc(NCC(F)(F)F)nc(N[C@@H]2C[C@H](CO)[C@@H](O)[C@H]2O)c1-c1nc2ccccc2s1	–	–	–	> 25 µM	> 25 µM	EC50 (Hepatitis C virus): 0.8 µM; AUC(0-t) at 24 h [4]: 7 µM·h; concentration at 4 h [12]: 8420 ng/g
OC[C@H]1C[C@@H](Nc2nc(NCC(F)(F)F)nc(C3CC3)c2-c2nc3ccccc3s2)[C@H](O)[C@@H]1O	0.7 µM	12.8 µM·h	12800 ng/g	> 25 µM	> 25 µM	–
Cc1nc(N[C@@H](C)C(F)(F)F)nc(N[C@@H]2C[C@H](CO)[C@@H](O)[C@H]2O)c1-c1nc2ccccc2s1	0.14 µM	13 µM·h	6570 ng/g	> 25 µM	> 25 µM	–

More lines, main results first:

EC50 (Hepatitis C virus; [13])	AUC(0-t) at 6 h [1]	Drug uptake (Liver)	SMILES	CC50 at 72 h [2]	CC50 at 72 h [3]	further results
0.05 µM	2.7 µM·h	75 ng/g	CNc1nc(C)c(-c2nc3ccccc3s2)c(N[C@@H]2C[C@H](CO)[C@@H](O)[C@H]2O)n1	> 25 µM	> 25 µM	–
0.1 µM	6.2 µM·h	515 ng/g	CCNc1nc(C)c(-c2nc3ccccc3s2)c(N[C@@H]2C[C@H](CO)[C@@H](O)[C@H]2O)n1	> 25 µM	12 µM	–
0.06 µM	2.3 µM·h	510 ng/g	Cc1nc(NCC(C)C)nc(N[C@@H]2C[C@H](CO)[C@@H](O)[C@H]2O)c1-c1nc2ccccc2s1	10 µM	10 µM	–
0.05 µM	3.2 µM·h	405 ng/g	Cc1nc(NCC2CC2)nc(N[C@@H]2C[C@H](CO)[C@@H](O)[C@H]2O)c1-c1nc2ccccc2s1	8 µM	8 µM	–
0.035 µM	5.9 µM·h	875 ng/g	COCCNc1nc(C)c(-c2nc3ccccc3s2)c(N[C@@H]2C[C@H](CO)[C@@H](O)[C@H]2O)n1	15 µM	21 µM	–
0.035 µM	2.4 µM·h	400 ng/g	CCOCCNc1nc(C)c(-c2nc3ccccc3s2)c(N[C@@H]2C[C@H](CO)[C@@H](O)[C@H]2O)n1	18 µM	18 µM	–
0.02 µM	0.9 µM·h	130 ng/g	Cc1nc(NCCOC(C)C)nc(N[C@@H]2C[C@H](CO)[C@@H](O)[C@H]2O)c1-c1nc2ccccc2s1	7 µM	8 µM	–
0.04 µM	0.3 µM·h	63 ng/g	CCOC(=O)NCCNc1nc(C)c(-c2nc3ccccc3s2)c(N[C@@H]2C[C@H](CO)[C@@H](O)[C@H]2O)n1	19 µM	12 µM	–
0.03 µM	5.3 µM·h	1080 ng/g	Cc1nc(NCCC(F)(F)F)nc(N[C@@H]2C[C@H](CO)[C@@H](O)[C@H]2O)c1-c1nc2ccccc2s1	9 µM	9 µM	–
